This is an account of results in patent publication US20070093410A1, “Selective inhibition of proteasomes of tuberculosis and other bacteria” (President and Fellows of Harvard College, priority 2004, published 2007).

Non-standard residues stand in square brackets, D forms with d. Residues, ends and D or L forms follow the SMILES beside them. No end group written: not given here. *: point of attachment. Biotin = O=C1N[C@H]2[C@H](CS[C@H]2CCCCC(=O)*)N1; Nle = CCCC[C@H](N)C(=O)O; Cbz = O=C(OCc1ccccc1)* Bounds are passed on as bounds.

The test system of data set [1] is SDS-activated 20S mammalian proteasomes. The data set is described as follows: Inhibition of individual active sites of SDS-activated 20S mammalian proteasomes, fluorogenic substrates specific for each active site. To be noted: sites other than the one the inhibitor is specific for; FIG. 1C. The data set is classed as biochemical, rabbit. The protocol: (§1) FIGS. 1A-1D depict hydrolysis of bKKQ10KK (SEQ ID NO:5) by the trypsin-like active site of the eukaryotic proteasome. A) 80 μM bKKQ10KK (SEQ ID NO:5) was incubated with mammalian (rabbit) 20S proteasomes with or without PA28αβ, 0.02% SDS. B) 35 μM bKKQ10KK (SEQ ID NO:5) was incubated with yeast wild type and ‘open-gate’ (α3ΔN) proteasomes. C) Mammalian 20S proteasomes were treated with inhibitors specific to each active site. D) After inactivation, the proteasomes were further incubated with bKKQ10KK (SEQ ID NO:5).
(§2) To identify which active site of the proteasome cleaved after bKKQ, inhibitors that selectively block the individual active sites were used. SDS-activated 20S mammalian proteasomes were treated with the irreversible inhibitors, 4-hydroxy-5-iodo-3-nitrophenylacetyl-Leu-Leu-vinyl sulfone (NLVS); (Bogyo et al., supra, incorporated herein by reference in its entirety for all purposes), which is specific for the chymotrypsin-like site; Acetyl-Tyr-Arg-Leu-Asn-vinyl sulfone (SEQ ID NO:20) (Ac-YRLN-VS), which reacts primarily with the trypsin-like site (Nazif et al. (2001) Proc. Natl. Acad. Sci. USA 98:2967, incorporated herein by reference in its entirety for all purposes); or with the reversible inhibitor of the caspase-like site, Z-Pro-norLeu-Asp-aldehyde (Z-PnLD-CHO) (Kisselev et al. (2003) supra, incorporated herein by reference in its entirety for all purposes). The extent of inhibition of the different sites was assayed using fluorogenic substrates specific for each active site. […] After inactivation of each type of active site, the proteasomes were incubated with bKKQ10KK. […] Thus, cleavage after bKKQ was due to the activity of the trypsin-like site, presumably because of the two-lysine residues preceding the initial Q residue.

Data set [2] shares this test system. The data set is described as follows: bKKQ10KK cleavage by 20S mammalian proteasomes after inactivation of each type of active site. Particulars: proteasomes pre-treated with inhibitor, then incubated with bKKQ10KK; FIG. 1D. Format: biochemical, rabbit. Here is the method: as §1, §2
For 20S proteasomes, 20 mM Hepes (pH 7.5) containing 1 mM dithiothreitol (DTT) was used. For reactions with 26S proteasomes, the buffer also contained 0.5 mM ATP and 2.5 mM MgCl2. All reactions were performed at 37° C. […] The reaction was terminated with 0.4 ml of ice-cold water and fluorescence read at 380 nm excitation and 470 nm emission. […]

In data set [3] the target is T1, archaebacterial 'open-gate' 20S proteasomes (Thermoplasma acidophilum, UniProt P28061).
T1 sequence (P28061 9-211): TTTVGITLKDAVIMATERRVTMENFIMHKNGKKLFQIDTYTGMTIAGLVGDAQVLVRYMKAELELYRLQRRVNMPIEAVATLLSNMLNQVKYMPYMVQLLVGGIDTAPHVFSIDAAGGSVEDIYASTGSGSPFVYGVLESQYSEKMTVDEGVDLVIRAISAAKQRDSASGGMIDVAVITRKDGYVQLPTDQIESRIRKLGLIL
The data set is described as follows: Hydrolysis of bKKQ20KK by archaebacterial 'open-gate' 20S proteasomes, effect of proteasome inhibitor. The data set is classed as biochemical. To be noted: 37° C. Here is the method:
(§3) FIGS. 4A-4B depict multiple cleavages within the polyQ sequence by archaebacterial proteasomes. A) bKKQ20KK (SEQ ID NO:9) (25 μM) was incubated with 0.6 μg of yeast or 250 ng of archaebacterial ‘open-gate’ 20S particles in a total volume of 50 μl. B) Products generated by the archaebacterial proteasomes were analyzed by MALDI-TOF.
(§4) 20S proteasomes of archaebacteria, e.g., Thermoplasma acidophilum, contain 14 identical active sites, which, though originally classified as “chymotrypsin-like” (Dahlmann et al. (1991) Biomed. Biochim. Acta 50:465, incorporated herein by reference in its entirety for all purposes), were later shown to cleave also after basic and acidic residues (Akopian et al., supra). These “less-specific” active sites were tested to determine if they could degrade within a polyQ sequence. […] It was determined that mutant archaebacterial proteasomes lacking this gate (Δ7α) (Benaroudj et al., supra, incorporated herein by reference in its entirety for all purposes) cleaved polyQ peptides and control peptides at least 17 fold faster than the wild-type particles. […]
(§5) For 20S proteasomes, 20 mM Hepes (pH 7.5) containing 1 mM dithiothreitol (DTT) was used. […] The reaction was terminated with 0.4 ml of ice-cold water and fluorescence read at 380 nm excitation and 470 nm emission.

The subject of the next data set is rabbit 26S proteasomes. The data set is described as follows: Peptide cleavage by 26S proteasomes (new amino groups, fluorescamine assay). Format: biochemical. Particulars: 35 μM peptide, FIG. 2. Here is the method: FIG. 2 graphically depicts rapid cleavage of the flanking RRGRR (SEQ ID NO:6) in Q20RRGRR (SEQ ID NO:7) by eukaryotic proteasomes. 35 μM of each of the following peptides bKKQ10KK (SEQ ID NO:8), bKKQ20KK (SEQ ID NO:9), N-extended-KK-Q20-KK (SEQ ID NO:10), Q20RRGRR (SEQ ID NO:7) and a control 20-mer peptide […] (SEQ ID NO:12), lacking any repeat sequence were incubated with 7.2 μg of rabbit 26S particles in a total volume of 40 μl. New amino groups formed were assayed.
Although 26S proteasomes cleaved these polyQ peptides slowly and only after the initial Q residues, they cleaved a Q20 (SEQ ID NO: 30) sequence with RRGRR (SEQ ID NO:6) at its C-terminus 5 to 6-fold faster than other polyQ peptides (FIG. 2) studied and at similar rates to the 20-mer control peptide (though not as fast as YGGFLRRIRPKLK (SEQ ID NO:29), a 13-mer which is cleaved at least 2 times faster).
For 20S proteasomes, 20 mM Hepes (pH 7.5) containing 1 mM dithiothreitol (DTT) was used. For reactions with 26S proteasomes, the buffer also contained 0.5 mM ATP and 2.5 mM MgCl2. All reactions were performed at 37° C. 5 μl aliquots were withdrawn at different times, 50 μl of 0.2M sodium phosphate (pH 6.8) was added and then mixed vigorously with 50 μl fluorescamine for 3 minutes. The reaction was terminated with 0.4 ml of ice-cold water and fluorescence read at 380 nm excitation and 470 nm emission.

The test system of a further data set is T2, bKKQ20KK (SEQ ID NO:9).
T2 sequence: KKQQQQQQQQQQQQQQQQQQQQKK

The test system of another data set is T3, bKKQ10KK (SEQ ID NO:8).
T3 sequence: KKQQQQQQQQQQKK

The subject of the next data set is yeast 20S proteasomes. The data set is described as follows: Hydrolysis of bKKQ10KK by yeast wild type and 'open-gate' (α3ΔN) 20S proteasomes. To be noted: 35 μM bKKQ10KK; FIG. 1B. The data set is classed as biochemical. The protocol: as §1
To test whether 20S proteasomes could cleave within a polyQ sequence, a peptide containing 10 Q-residues flanked at each end by two lysine residues to enhance solubility (bKKQ10KK) (SEQ ID NO:8) and biotin on the α amino group was initially used as a substrate. […] Similarly, a mutant form (α3ΔN) of the yeast proteasome with an N-terminal deletion in the α3 subunit, which causes ‘gate-opening’, hydrolyzed bKKQ10KK (SEQ ID NO:8), approximately ten-fold faster than the wild-type (FIG. 1B). Thus, entry of this peptide and its cleavage depends on the presence of an ‘open-gate’ in the α-ring. […]
as §5

A further data set concerns eukaryotic proteasomes. Put plainly: Competitive inhibition of hydrolysis of standard fluorogenic substrates by eukaryotic proteasomes. The data set is classed as biochemical. The text has this:
In contrast to eukaryotic proteasomes, the ancestral particles from the archaebacterium T. acidophilum digested polyQ peptides very rapidly and degraded completely the myoglobin-polyQ fusion protein. Unlike the eukaryotic homologs, these prokaryotic proteasomes contain 14 identical active sites of broad specificity. […] The data presented herein indicate that the trypsin-like sites can cleave after a P1 glutamine if the preceding residue at P2 is a lysine and at P3 a αN-blocked lysine. […] Thus, their failure to degrade polyQ-sequences is due to the inability of their active sites to bind the polyQ repeat, not to the proteasome's unique catalytic mechanism, which is similar in eukaryotic and archaebacterial particles.

The target of data set [4] is T1, archaebacterial 'open-gate' 20S proteasomes. The data set is described as follows: Cleavage of polyQ peptides by archaebacterial 'open-gate' (Δ7α) 20S proteasomes. The data set is classed as biochemical. Particulars: half the concentration of the yeast particles, 37° C. Here is the method:
as §3, §4, §5

Data set [5] deals with bovine PA 28alpha-beta (Boston Biochem, Inc.).
Data set [6] has as its system T4, Acetyl-Tyr-Arg-Leu-Asn-vinyl sulfone (SEQ ID NO:20).
T4 sequence: YRLN

Regarding “4-hydroxy-5-iodo-3-nitrophenylacetyl-Leu-Leu-vinyl sulfone [NLVS]”, the “effect on the other two peptidase activities” value in data set [1] was “without significantly affecting the other two”. In data set [2], the “reduction of bKKQ10KK cleavage” value is recorded as “no significant effect”. Turning to `CC(C)C[C@@H](C=O)NC(=O)[C@H](CC(C)C)NC(=O)[C@H](CC(C)C)NC(=O)OCc1ccccc1` [MG132] (Cbz-Leu-Leu-Leu-aldehyde), the “inhibition of bKKQ20KK hydrolysis” value in [3] is recorded as “inhibited this process”. For the compound `CCCC[C@H](NC(=O)[C@@H]1CCCN1C(=O)OCc1ccccc1)C(=O)N[C@H](C=O)CC(=O)O` [Z-PnLD-CHO, Z-Pro-norLeu-Asp-aldehyde] (Cbz-Pro-[Nle]-Asp-aldehyde), the “effect on the other two peptidase activities” value in data set [1] was “without significantly affecting the other two”. Moreover, the “reduction of bKKQ10KK cleavage” value in data set [2] is on record as “no significant effect”. Taken in the same sequence, the figures for “Acetyl-Tyr-Arg-Leu-Asn-vinyl sulfone (Ac-YRLN-{vinyl sulfone}) [Ac-YRLN-VS]” were “without significantly affecting the other two” and “about 70%”. As to “Q20RRGRR: Q20 sequence with RRGRR at its C-terminus (SEQ ID NO:7) (QQQQQQQQQQQQQQQQQQQQRRGRR; Peptide generated by solid-phase peptide synthesis)”, the “cleavage rate relative to other polyQ peptides” value in the data set on rabbit 26S proteasomes was in the range of 5 to 6 fold.

On to “archaebacterial 'open-gate' 20S proteasomes (delta7alpha) of Thermoplasma acidophilum”, for which the “rate of peptide cleavage against yeast 'open-gate' 20S proteasomes, 37° C.” value was “cleaved both bKKQ10KK (SEQ ID NO:8) and bKKQ20KK (SEQ ID NO:9) at least 70 times faster than the yeast ‘open-gate’ 20S proteasomes” with bKKQ20KK (SEQ ID NO:9); “cleaved both bKKQ10KK (SEQ ID NO:8) and bKKQ20KK (SEQ ID NO:9) at least 70 times faster than the yeast ‘open-gate’ 20S proteasomes” in the data set with bKKQ10KK (SEQ ID NO:8). As for “bKKQ10KK: peptide containing 10 Q-residues flanked at each end by two lysine residues, biotin on the α amino group (SEQ ID NO:8) (Biotin-KKQQQQQQQQQQKK)”, the “hydrolysis rate by α3ΔN mutant relative to wild-type yeast proteasome” value in the data set on yeast 20S proteasomes was “approximately ten-fold”. In addition, the “competitive inhibition of hydrolysis of standard fluorogenic substrates” value with eukaryotic proteasomes is “could not competitively inhibit”.

As for “bKKQ20KK: Q20 sequence flanked by two lysine residues on each end and biotin on the α amino group (SEQ ID NO:9) (Biotin-KKQQQQQQQQQQQQQQQQQQQQKK)”, in [4], the “time to complete consumption of the peptide” value was at most 45 min.

As to rabbit 20S proteasomes, the “hydrolysis of bKKQ10KK and of standard fluorogenic peptide substrates” value in data set [5] was “Rabbit 20S proteasomes, when purified in their latent state, were inactive against bKKQ10KK (SEQ ID NO:8) (FIG. 1A) or against standard fluorogenic peptide substrates, unless PA28αβ, or 0.02% SDS was added”. In addition, in [6], the “decrease in the individual peptidase activities (fluorogenic substrates specific for each active site)” value was “Each inhibitor caused an 85%-95% decrease in the individual peptidase activities without significantly affecting the other two” and the “reduction of bKKQ10KK cleavage” value is listed as “Treatment with Ac-YRLN-VS (SEQ ID NO:20) reduced bKKQ10KK (SEQ ID NO:8) cleavage by about 70%”.
